The text below walks through data of patent EP3952873B1 (priority 2019, dated 2020).

Structures are written as SMILES.

In one series the test system is GABAA receptors. As to the kind of experiment: Affinity for GABAA receptors. The series is classed as binding.
A further series addresses T1, GABAB receptor (Rattus norvegicus, UniProt Q9Z0U4).
T1 construct: from tissue; host or cells: rat brain synaptic membranes
As to the kind of experiment: GABAB binding assay with [3H]GABA, rat brain synaptic membranes. As to conditions: at 100 µM. The source says: To assess affinity of JON-11 for the GABAB receptor, we employed a GABAB binding assay using rat brain synaptic membranes (Wellendorph et al., 2005). […] B) JON-11 was further assessed for functional activity using CHO cells stably expressing GABAB(1b,2) receptors (Rajalu et al., 2015).

The test system of the next series is mice. The series is classed as in vivo. As to conditions: 100 mg/kg i.p. The method, then: To determine locomotor effects (e.g. sedation or hyperactivity) compounds were assessed after systemic administration to mice. Mice (typically n=5-8) were administered selected compounds, e.g. JON-11 and pro-JON-11 and vehicle controls, and placed in transparent cages (L: 37 cm x W: 21 cm x H: 15 cm). Locomotor activity were measured via a camera mounted above the arena. Mice will be recorded for 45 min and data collected in 5-min intervals. Data will be stored on a computer equipped with Ethovision XT (Noldus).

For series [1], the target named is T2, GHB high-affinity binding site/CaMK2a (Rattus norvegicus, UniProt P11275).
T2 construct: rat (Sprague-Dawley) cortical synaptic membranes (P2 synaptosomes) were prepared; from tissue; host or cells: rat (Sprague-Dawley) cortical synaptic membranes (P2 synaptosomes)
T2 sequence (P11275 whole entry): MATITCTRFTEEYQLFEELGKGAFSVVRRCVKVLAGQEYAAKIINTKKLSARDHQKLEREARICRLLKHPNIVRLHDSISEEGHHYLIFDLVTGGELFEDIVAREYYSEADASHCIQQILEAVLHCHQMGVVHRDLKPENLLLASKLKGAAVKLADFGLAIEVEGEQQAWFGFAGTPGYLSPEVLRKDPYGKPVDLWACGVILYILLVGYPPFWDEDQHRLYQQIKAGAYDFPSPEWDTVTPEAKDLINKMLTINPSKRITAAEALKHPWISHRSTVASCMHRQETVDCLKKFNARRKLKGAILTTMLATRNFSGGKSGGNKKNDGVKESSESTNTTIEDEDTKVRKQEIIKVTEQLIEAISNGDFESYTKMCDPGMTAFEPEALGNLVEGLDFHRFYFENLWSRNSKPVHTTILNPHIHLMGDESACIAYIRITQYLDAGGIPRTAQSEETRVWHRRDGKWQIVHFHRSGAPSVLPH
As to the kind of experiment: Rat brain membrane [3H]NCS-382 binding assay. Particulars: 16 nM [3H]NCS-382, rat cortical synaptic membranes, pH 6.0, 0-4 °C. The method, then:
According to previously published protocols, rat (Sprague-Dawley) cortical synaptic membranes (P2 synaptosomes) were prepared and stored at -20 °C until the day of assay (Wellendorph et al., 2005). Membranes were then washed three times with binding buffer (50 mM potassium phosphate buffer pH 6.0). The binding protocol was performed in 96-well microplates. In brief, compounds were incubated with 16 nM [^3H]NCS-382 radioligand and membranes for 60 min at 0-4 °C, filtered through GF/C filter plates (PerkinElmer) using a 96-well harvester (Packard), rapidly washed three times with ice-cold binding buffer, and filter plates dried. CPM values were determined using liquid scintillation counting in a TopCount NXT Microplate Scintillation & Luminescence Counter (PerkinElmer). Curves were generated using non-linear regression (GraphPad Prism 7, GraphPad Prism Software, San Diego, CA, USA).
JON-11, related analogues, and pro-JON-11(10) were tested in the [^3H]NCS-382 binding assay (Wellendorph et al., 2005).

The format of series [2] is in vitro ADME, mouse. Particulars: during the metabolic stability study. Here is the method: Metabolic stability analysis was performed on a Bruker Avance Ultra High Performance Liquid Chromatography (UHPLC) (Bruker Daltonik, Bremen, Germany) equipped with a CTC-PAL-xt autosampler with cooled sample compartments (10 °C) and a column oven held at 40 °C. The UHPLC eluate was directed to a Bruker Evoq Elite triple quad-ropole MS equipped with a heated electrospray ionization source operated in positive ionization mode. Separation of 15 µL sample was obtained using a Phenomenex (Phenomenex, Torrance, CA, USA) Kinetex XB-C18 column (50 mm × 2.1 mm i.d., 1.7 µm particle size) equipped with a guard column. The analytes were separated using a solvent system consisting of water/acetonitrile (95:5, v/v) (eluent A) and water/acetonitrile (5:95, v/v) (eluent B); both acidified with 0.1% formic acid. The eluent flow rate was maintained at 0.4 mL/min with the following gradient elution profile: 0 min: 0% B; 5 min: 100% B; 6 min: 100% B, followed by three min equilibration at 0% B. Two ion transitions were monitored for all analytes and internal standard.
The mouse liver microsome assay was performed by transferring 25 µL of a 20 µM solution of the test compound (0.5% DMSO), dissolved in potassium phosphate monobasic buffer (pH 7.4) containing 3 mM MgCl2, to 9 wells in a microtiter plate. To each well, […] of a 0.5 mg/mL mouse liver (Sigma Aldrich) in buffer was added, and the microtiter plate were pre-incubated for 5 min at 37 °C in a plate shaker at 600 rpm. After pre-incubation, 50 µL 37 °C NADPH regenerating system, consisting of 2 mM NADP+, 10mM glucose-6-phosphate, and 2 U/mL glucose-6-phosphate dehydrogenase dissolved in buffer, was added to start the assay. In triplicates, immediately after adding the NADPH solution, 75 µL was transferred to an Eppendorf tube, containing […] ice-cold acetonitrile with 400 ng/mL internal standard (7). Similarly, samples were prepared after 30 min and 60 min incubation at 37 °C. The samples were vortexed for 30 seconds and centrifuged at 16,000 × g for 10 minutes before analyzing the supernatant. The individual analyte responses were normalized to the internal standard. Diazepam was used as positive control.
The mouse […] assay was performed by transferring 75 µL of a 10 µM solution of the test compound (0.5% DMSO), dissolved in PBS buffer (pH 7.4), to 9 wells in a microtiter plate. To each well, 75 µL mouse plasma, harvested from in-house mice into K2-EDTA tubes and centrifuged at 1,600 × g, was added. […]
The metabolic stabilities of JON-11 and the prodrugs 1a, 8-12, 19 and 20 were determined in vitro in rat plasma and rat liver microsomes. […] The corresponding loss of prodrug compounds and formation of parent drug JON-11 was determined by UHPLC-MS.

T1 sequence (Q9Z0U4 20-960): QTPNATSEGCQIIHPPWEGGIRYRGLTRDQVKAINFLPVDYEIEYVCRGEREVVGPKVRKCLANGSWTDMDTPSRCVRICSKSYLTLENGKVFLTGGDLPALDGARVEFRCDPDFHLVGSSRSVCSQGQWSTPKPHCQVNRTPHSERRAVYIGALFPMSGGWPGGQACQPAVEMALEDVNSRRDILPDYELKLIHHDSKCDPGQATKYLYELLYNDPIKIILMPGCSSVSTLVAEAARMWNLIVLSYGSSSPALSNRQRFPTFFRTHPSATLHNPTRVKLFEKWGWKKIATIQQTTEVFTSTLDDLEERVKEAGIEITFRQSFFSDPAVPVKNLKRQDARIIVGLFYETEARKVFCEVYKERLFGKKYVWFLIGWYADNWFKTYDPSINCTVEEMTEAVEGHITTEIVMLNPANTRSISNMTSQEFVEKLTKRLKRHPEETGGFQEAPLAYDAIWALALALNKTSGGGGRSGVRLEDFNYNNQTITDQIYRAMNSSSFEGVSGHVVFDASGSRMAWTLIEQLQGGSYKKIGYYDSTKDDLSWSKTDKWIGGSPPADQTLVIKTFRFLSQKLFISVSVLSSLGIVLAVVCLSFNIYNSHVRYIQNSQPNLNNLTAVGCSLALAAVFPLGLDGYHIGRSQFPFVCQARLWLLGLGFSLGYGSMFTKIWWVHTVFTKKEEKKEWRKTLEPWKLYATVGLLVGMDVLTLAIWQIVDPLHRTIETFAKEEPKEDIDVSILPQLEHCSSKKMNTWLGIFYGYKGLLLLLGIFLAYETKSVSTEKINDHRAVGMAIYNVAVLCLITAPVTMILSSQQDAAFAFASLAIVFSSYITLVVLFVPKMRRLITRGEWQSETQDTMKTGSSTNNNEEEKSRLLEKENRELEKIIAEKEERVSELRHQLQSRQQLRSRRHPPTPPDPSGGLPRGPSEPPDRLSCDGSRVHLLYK
T1 sequence (O88871 41-940 partner): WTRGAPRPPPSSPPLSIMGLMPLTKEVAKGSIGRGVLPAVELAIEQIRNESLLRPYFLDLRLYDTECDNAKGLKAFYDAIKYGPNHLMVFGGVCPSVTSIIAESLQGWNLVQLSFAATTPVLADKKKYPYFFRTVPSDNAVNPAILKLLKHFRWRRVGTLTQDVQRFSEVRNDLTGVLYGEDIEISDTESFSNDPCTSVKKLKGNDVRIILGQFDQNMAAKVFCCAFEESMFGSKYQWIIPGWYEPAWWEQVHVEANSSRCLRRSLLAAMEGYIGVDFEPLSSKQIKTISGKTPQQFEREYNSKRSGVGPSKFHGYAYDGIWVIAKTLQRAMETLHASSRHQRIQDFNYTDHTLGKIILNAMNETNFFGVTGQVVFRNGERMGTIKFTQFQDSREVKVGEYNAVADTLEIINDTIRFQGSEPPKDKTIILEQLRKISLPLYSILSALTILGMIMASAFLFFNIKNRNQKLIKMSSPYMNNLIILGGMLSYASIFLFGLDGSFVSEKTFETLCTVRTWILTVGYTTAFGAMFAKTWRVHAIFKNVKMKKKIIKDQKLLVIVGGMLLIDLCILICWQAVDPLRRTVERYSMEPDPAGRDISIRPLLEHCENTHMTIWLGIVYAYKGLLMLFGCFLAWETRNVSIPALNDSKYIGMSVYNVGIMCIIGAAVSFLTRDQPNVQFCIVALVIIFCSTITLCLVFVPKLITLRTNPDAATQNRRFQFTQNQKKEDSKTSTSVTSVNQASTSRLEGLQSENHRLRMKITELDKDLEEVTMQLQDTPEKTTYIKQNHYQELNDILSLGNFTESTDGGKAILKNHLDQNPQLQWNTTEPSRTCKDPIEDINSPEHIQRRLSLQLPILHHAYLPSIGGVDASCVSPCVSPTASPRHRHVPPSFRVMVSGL

As usually defined, the Ki is the dissociation constant of the complex between target and ligand, obtained from inhibition or displacement. High values mean a looser hold on the target, low ones a stronger hold on the target. Consider `O=C(O)Cc1cn2nc(-c3ccc(Cl)cc3)ccc2n1` [JON-11, 2-(6-(4-Chlorophenyl)imidazo[1,2-b]pyridazin-2-yl)acetic acid], for which, in the series with GABAA receptors, the “affinity for GABAA receptors” value is recorded as “weak affinity”. Also, at GABAB receptor, the “ability to compete with [3H]GABA” value is on record as “no ability to compete”. In addition, in the series with mice, the locomotor activity result is reported as “does not affect locomotor activity”. In series [1], this compound registered a Ki of 220 nM. The “Chemical or enzymatic degradation” value in series [2] is on record as “not observed”.
